Reference: US20090180958A1, “Diagnostic and therapeutic agents” (Karyon-CTT Ltd., priority 2005, published 2009)

Columns and labels:
[1] = Immunogenicity: immunization of mice and serological antibody ELISA; format: in vivo, balb/c female mice; conditions: i.p. 50 μg day 0, 25 μg days 14, 28, 56, 84; end point bleed day 98, serum 1:40; HP201 as capture antigen
Protocol: Mice and immunization. Female 6- to 8-week old balb/c female mice (Harlan Laboratories, The Netherlands) were used in this study. The targeting unit IS257 (described in Example 3) was dissolved in sterile saline at 0.5 mg/ml and 0.25 mg/ml concentrations. A group of five mice were initially immunized intraperitoneally with 50 μg of targeting unit on day 0. The following immunizations were done with 25 μg of targeting unit on days 14, 28, 56 and 84. Mice were bled from the tail vein on day 0 (preimmune bleed) and thereafter on days 42, 70, and 98 (end point bleed). Blood was collected in tubes and the serum was clarified by centrifugation at 3500 RPM for 7 minutes. […]
Serological antibody assay. […] The wells were washed five times with washing buffer (PBS containing 0.05% Tween20) before incubating for 1 h at 37° C. with 150 μl of a 1:1000 dilution of horseradish peroxidase conjugated Affinipure of goat anti-mouse IgG+IgM (Jackson ImmunoResearch Europe Ltd) and detected with a DAB (3,3′-diaminobentzidine) substrate kit for peroxidase (Vector Laboratories).
As a positive control the horseradish peroxidase conjugated Affinipure goat anti-mouse IgG+IgM (10 μg/ml) was used to coat the wells of Reacti-Bind Maleimide activated clear strip plate overnight at 4° C. […] The plates were read at 405 nm using an ELISA plate reader (ThermoLabsysrems Multiskan EX).

A549 cells = assay: Fluorescent targeting agent staining of fixed cells; format: cell-based, human; conditions: 500 μg/ml in PBS, pH 7.4, added prior to F5M-A49
Protocol: A549 cells and HeLa cells (described in Example 18) were grown on glass slides, washed with PBS and then fixed with methanol. The fluorescent targeting agent F5M-A49 (described in Example 10) was used to stain these cells as follows: Cells were first blocked with blocking buffer (1.0% BSA, 0.05% Tween20 in PBS, pH 7.4) for one hour at 20° C. The cells on the glass slides were incubated with 20 μl of F5M-A49 targeting agent (50 μg/ml in PBS, pH 7.4). As control, binding of F5M-A49 was competed with 20 μl of IS257 targeting unit (free peptide described in Example 3), 500 μg/ml in PBS, pH 7.4) prior to addition of the targeting agent. As negative controls, cells not incubated with any targeting agent were used. After the staining the cells were mounted on object glasses with mountex (Histolab Products Ltd). After this cells were viewed under a fluorescent microscope (Carl Zeiss Microscopy, Jena, Germany).

[2] = In vivo cytotoxicity (behaviour after i.v. injection); design: species or system Athymic nude mice; conditions: 1 mg i.v. tail vein; observed 30 min after injection and 15 min on following day
Protocol: The behaviour of mice was observed during 30 min right after injection and during 15 min on the following day (comparison to non-injected mouse). Three mice were taken into this study (plus non-injected controls).

[3] = tested on: A549, NCI-H23, NCI-H520, NCI-H460, C8161/M1, HeLa, NIH3T3, E10V, SVEC4-10 cell lines; assay: Cytotoxicity assay (MTT); format: cell-based; conditions: 50 μg/ml and 500 μg/ml; 24 h, 48 h (72 h); all nine tested cell lines
Protocol: In this assay cell lines were exposed to two different concentrations (50 μg/and 500 μg/ml) of IS257 targeting unit (described in Example 3) for two to three days to test the toxicity of the peptides. The measurement of cell viability was done with MTT (Thiazolyl blue, Sigma M-5655 ) tetrazolium salt. MTT is cleaved to water-insoluble formazan dye by the “succinate-tetrazolium reductase” system which is active only in viable cells. After formazan was solubilized by 10% SDS-0.01 M HCl, it was quantified in an ELISA spectrometer (ThermoLabsystems Multiscan EX) at 560 nm. CuSAO2 [trans-bis(salicylaldoximato) copper(II)] (Elo HO, Lumme PO., 1985) 7.5 μg/ml was used as a positive control for 100% toxicity.
Procedure. Cells were trypsinized from the cell culture dish (ø9 cm) with 1 ml of TE for 1-5 minutes and moved to a 50 ml Falcon tube. […]
Then 40 μl of IS257 targeting unit in appropriate medium were added to the wells in two concentrations, so that final concentrations were 50 μg/ml and 500 μg/ml, and the volume of the wells was raised back to 100 μl. […] The next day the cell morphology was analyzed with a microscope. […]
The next day, the MTT assay described above was performed. The viable count (v.c.) was calculated as:
Average toxicated cell absorbance−Average DMEM absorbance=Viable count Average living cell absorbance−Average DMEM absorbance […]

Ac-ARRPKLD-NH2 [IS257]
immunogenicity (anti-targeting unit antibodies in serum, ELISA, absorbance at 405 nm) [1]: non-immunogenic | competition of F5M-A49 binding to A549 cells by free peptide (A549 cells): blocked | toxic effect on mice (behaviour) [2]: did not have any toxic effect | toxicity to cell lines (viable count, MTT) [3]: non-toxic
